Laboratory results from US20080146516A1, “Novel C-Glycosides, uses thereof” (L 'OREAL SA, priority 2004, published 2008).

System: normal human dermal fibroblasts
Assay: Synthesis of glycosaminoglycans (hyaluronic acid): incorporation of radioactivity into the matrix neosynthesized by fibroblast cultures
Assay type: cell-based
Details: 72 hours incubation; for cpm (radioactivity incorporated into matrix GAGs): 35S-sulphate during final 24 hours; for %/control: relative to the control (100)
Protocol: The study was carried out by measuring the incorporation of radioactive glucosamine into the matrix neosynthesized by normal human dermal fibroblast cultures. The incorporation of radioactive glucosamine indicates specific neosynthesis of glycosaminoglycans via incorporation of the sulphated form of this glucosamine.
Normal human dermal fibroblasts were seeded in the conventional culture medium and were then preincubated for 24 hours. The culture medium was then replaced with the test compounds at concentrations of 0.3, 1 and 3 mM; or culture medium (control); or TGFβ at 10 ng/ml (quality control). The cells were incubated for 72 hours with the addition of ^35S-sulphate during the final 24 hours of culture. The GAGs in the matrix were extracted with a chaotropic buffer and then purified by ion exchange chromatography (adsorption of the anionic molecules onto Q-sepharose beads under high stringency conditions, followed by desorption of the weakly and moderately anionic molecules with urea). The radioactivity incorporated into the very […] molecules that remained on the support were counted by liquid scintillation.
The results are expressed as percentage relative to the control: […]

For `C[C@H](O)C[C@@H]1OC[C@@H](O)[C@H](O)[C@H]1O` [Example 1, C-β-D-xylopyranoside-2-(S)-hydroxypropane], the “cpm (radioactivity incorporated into matrix GAGs)” value (shortened to “cpm”) (0.3 mM) was 16276 cpm, the “%/control” value (0.3 mM) was 325% and the “cpm” value (1 mM) was 30943 cpm. For the same molecule, the “%/control” value (1 mM) was 618%, the “cpm” value (3 mM) was 40770 cpm and the “%/control” value (3 mM) was 814%.

With TGFβ [reference compound] the “cpm” value (10 ng/ml) was 9625 cpm and the “%/control” value (10 ng/ml) was 192%.
